This is an account of results in PubChem BioAssay (NCI).

SMILES strings stand for the structures.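 Exposure lasted 48 hours, with cells grown in 96-well plates and compounds tested at five concentrations. Here, GI50 denotes the concentration required for 50% inhibition of growth. TGI is the concentration that stops growth completely.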

Among the test systems are K-562 leukemia; EKVX NSCLC; SW-620 colon; MALME-3M melanoma; M14 melanoma; NCI-H460 lung; HCC-2998 colon; UO-31 renal; PC-3 prostate; HS 578T breast.
Common to all, as to test: NCI anticancer screen, dose series, 48 h

Consider `O=c1c2cc3c(cc2c2cccc4c2n1CCC4)OCO3`, for which the TGI is greater than 100 µM with K-562 leukemia; 99.5 µM in the assay with EKVX NSCLC; greater than 100 µM in the assay with SW-620 colon; greater than 100 µM with MALME-3M melanoma; greater than 100 µM in the assay on M14 melanoma; greater than 100 µM with NCI-H460 lung. In addition, the TGI in the assay with HCC-2998 colon and in the assay with UO-31 renal was greater than 100 µM throughout.
On to `Cc1c2c(c(C)c3c1[nH]c1ccccc13)CN(C)CC2`, for which the TGI in the assay on K-562 leukemia was greater than 100 µM; in the assay with SW-620 colon, 28.6 µM; with MALME-3M melanoma, 30.3 µM; with M14 melanoma it was 28.4 µM; in the assay with NCI-H460 lung, 35.5 µM; with HCC-2998 colon, 31.2 µM. This compound came in with a TGI in the assay with UO-31 renal of 53 µM.
As to `COC(=O)Cc1cc(=O)[nH]c2c1C(=O)CCC2`, the TGI with K-562 leukemia, with EKVX NSCLC, in the assay on SW-620 colon, with MALME-3M melanoma, with M14 melanoma and with NCI-H460 lung was greater than 100 µM in each case. Moreover, the TGI with HCC-2998 colon and in the assay with UO-31 renal was greater than 100 µM throughout.
For `NC(=O)NC1C(C(=O)O)N(Cc2ccccc2)C(=O)N1Cc1ccccc1` (stereo unspecified), the TGI with K-562 leukemia, in the assay with EKVX NSCLC, in the assay on SW-620 colon, in the assay on MALME-3M melanoma, in the assay with M14 melanoma and in the assay with NCI-H460 lung was greater than 100 µM each time. Also, the TGI in the assay with HCC-2998 colon and in the assay on UO-31 renal was greater than 100 µM throughout.
As for `O=Cc1ccc(-c2ccc(-c3nc4ccccc4s3)cc2)s1`, the GI50 is 28.7 µM with PC-3 prostate; 37.1 µM in the assay on K-562 leukemia; 42.1 µM with EKVX NSCLC; 56.4 µM with SW-620 colon; 52.4 µM in the assay with MALME-3M melanoma; 54.6 µM in the assay with M14 melanoma. The results for the GI50 in the assay with NCI-H460 lung, with HCC-2998 colon and in the assay with UO-31 renal were 83.5 µM, greater than 100 µM and 42.7 µM, respectively. For the same compound, the TGI in the assay with PC-3 prostate, in the assay on K-562 leukemia, in the assay on EKVX NSCLC, in the assay on SW-620 colon, in the assay with MALME-3M melanoma and in the assay with M14 melanoma was greater than 100 µM each time. Further, the TGI in the assay on NCI-H460 lung, with HCC-2998 colon and with UO-31 renal was greater than 100 µM each time.
For `OCCN(CCO)c1cccc(N(CCO)CCO)n1`, the TGI in the assay on K-562 leukemia, in the assay with EKVX NSCLC, in the assay on SW-620 colon, in the assay on M14 melanoma, with NCI-H460 lung and in the assay with UO-31 renal was greater than 100 µM throughout.
Regarding `COc1ccc(C(=O)C#Cc2c[nH]c(=O)[nH]c2=O)cc1`, the TGI was 37.3 µM with K-562 leukemia; greater than 54.4 µM with EKVX NSCLC; 26.7 µM with SW-620 colon; 18.7 µM in the assay with MALME-3M melanoma; 18 µM with M14 melanoma; 73.9 µM in the assay on NCI-H460 lung. Besides, the TGI came to 36.4 µM in the assay with HCC-2998 colon and 35.2 µM in the assay on UO-31 renal.
For the compound `COc1cc(C)c2sc3ccccc3c(=O)c2c1NCCN(C)C`, the GI50 with PC-3 prostate is 4.28 µM; in the assay with K-562 leukemia, 2.3 µM; in the assay on SW-620 colon it was 3.39 µM; in the assay with MALME-3M melanoma, 2.11 µM; in the assay on M14 melanoma it was 2.16 µM; with NCI-H460 lung, 3.26 µM. Besides, the GI50 in the assay on HCC-2998 colon is 2.99 µM; with UO-31 renal it was 3.46 µM. In addition, the TGI amounted to 17.4 µM in the assay on PC-3 prostate; 4.61 µM in the assay on K-562 leukemia; 14.5 µM in the assay on SW-620 colon; 5.39 µM with MALME-3M melanoma; 4.33 µM with M14 melanoma; 12.3 µM in the assay with NCI-H460 lung. For the same compound, the values for the TGI in the assay on HCC-2998 colon and in the assay with UO-31 renal were 9.03 µM and 16.1 µM, respectively.
For the compound `CCC1(CN(C)C)CC/C(=C\c2ccc(OC)c(OC)c2)C1=O` (stereo unspecified), the TGI in the assay with K-562 leukemia, in the assay on EKVX NSCLC, with SW-620 colon, in the assay with MALME-3M melanoma, in the assay with M14 melanoma and in the assay on NCI-H460 lung was greater than 100 µM in each case. The TGI in the assay on HCC-2998 colon and in the assay on UO-31 renal was greater than 100 µM throughout.
As to `Cl.Fc1c[c-]c(-c2ccccn2)c(F)c1.[Pt].c1ccc([PH+](C[PH+](c2ccccc2)c2ccccc2)c2ccccc2)cc1`, the GI50 in the assay on PC-3 prostate was 0.276 µM; with K-562 leukemia it was 0.0483 µM; with EKVX NSCLC, 0.261 µM; with SW-620 colon, 0.197 µM; with M14 melanoma it was 0.314 µM; in the assay on HS 578T breast, 0.312 µM. Besides, the TGI turned out to be 1.14 µM in the assay on PC-3 prostate; 0.573 µM with K-562 leukemia; 1.05 µM with EKVX NSCLC; 0.494 µM in the assay with SW-620 colon; 1.02 µM in the assay on M14 melanoma; 1.56 µM in the assay on HS 578T breast.
On to `O=C1CCCCC12CCC/C2=N\O` (stereo unspecified), for which the TGI with K-562 leukemia, in the assay with EKVX NSCLC, with SW-620 colon, in the assay with MALME-3M melanoma, with M14 melanoma and in the assay on NCI-H460 lung was greater than 100 µM each time. Further, the TGI in the assay with HCC-2998 colon and in the assay on UO-31 renal was greater than 100 µM in each case.
With `O=C(NCCCl)SCCO`, the TGI in the assay with K-562 leukemia, with EKVX NSCLC, with SW-620 colon, in the assay with MALME-3M melanoma, in the assay with M14 melanoma and in the assay on NCI-H460 lung was greater than 100 µM in each case. In addition, the TGI in the assay with HCC-2998 colon and in the assay on UO-31 renal was greater than 100 µM each time.
For `Cc1ccc(NC(=O)CCc2n[nH]c(=S)o2)cc1`, the TGI in the assay with K-562 leukemia, with EKVX NSCLC, in the assay with SW-620 colon, in the assay on MALME-3M melanoma, in the assay on M14 melanoma and in the assay on NCI-H460 lung was greater than 100 µM throughout. For the same compound, the TGI in the assay with HCC-2998 colon and in the assay on UO-31 renal was greater than 100 µM throughout.
In the case of `Cc1cc(Cl)ccc1C(=O)c1ccc2ccccc2c1C(=O)O`, the TGI in the assay on PC-3 prostate, in the assay on K-562 leukemia, with SW-620 colon, with MALME-3M melanoma, in the assay on M14 melanoma and with NCI-H460 lung was greater than 100 µM each time. For the same compound, the TGI in the assay on HCC-2998 colon and with UO-31 renal was greater than 100 µM throughout.
